Source: US7135457B1, “Random peptides that bind to gastro-intestinal tract (GIT) transport receptors and related methods” (Cytogen Corporation, priority 1997, dated 2006)
Square brackets hold non-standard residues; d marks the D form. Peptide text beside a SMILES is read from it. * marks the point of attachment. Dansyl = CN(C)c1cccc2c(S(=O)(=O)*)cccc12

How the values were obtained:
[1] = system: fixed Caco-2 or C2BBe1 cells; test: ELISA of GST fusion proteins on fixed Caco-2 or C2BBe1 cells; format: binding; details: Caco-2
Description: Fixed Caco-2, C2BBe1, and A431 cell plates were prepared by growing cells on tissue culture treated microtiter plates. When cells were confluent, plates were fixed with 10% formaldehyde, washed twice with PBS and stored with 0.5% BSA-PBS at −20° C. […] The standard ELISA procedure was followed at this point.
The standard ELISA procedure was modified as follows. GST proteins were diluted to an appropriate concentration in PBS containing 1% BSA and 0.05% Tween20 (1% BPT), titered and incubated one hour at room temperature. Following five washes an anti-GST monoclonal antibody was added (Sigma, St. Louis Clone GST-2 diluted 1:10,000 in 1% BPT) and incubated one hour. After five more washes goat anti-mouse IgG2b-HRP was added (Southern Biotechnology Associates Inc., Birmingham, Ala., diluted 1:4000 in 1% BPT) and incubated one hour. After five washes plates were developed with TMB peroxidase substrate (Kirkegard and Perry, Gaithersburg, Md.). All data is presented with background binding subtracted.

[2] = system: polarized Caco-2 monolayers; test: Transport and uptake of GST-peptide fusions across/into polarized Caco-2 monolayers (anti-GST ELISA); format: in vitro ADME; details: 100 μg/ml GST fusion
Description: Transport and uptake of GST-peptide fusions and deletion derivatives across cultured polarized Caco-2 monolayers over 4 hours in HBSS buffer was examined using an anti-GST ELISA assay. In another experiment, transport and uptake of GST-peptide fusions and deletion derivatives across cultured polarized Caco-2 monolayers over 24 hours in serum-free medium (SFM) was examined using an anti-GST ELISA assay.
a) 4 h HBSS study: Transepithelial electrical flux (TER) across the Caco-2 monolayers grown on snapwells (passage 33; 23 days old) was measured to confirm monolayer integrity before beginning the experiment. The medium was removed and the cells were washed once with bHBSS. bHBSS containing 100 μM chloroquine was added and the cells were incubated for 2 h at 37° C. The bHBSS+chloroquine was replaced with 0.5 ml bHBSS containing GST-peptide fusions (100 μg/ml) and the cells were incubated as before. […] At 4 h, TER was measured, the apical medium was sampled and the apical reservoir was washed 6 times with HBSS. […]
b) 24 h SFM study: Transepithelial electrical flux (TER) across the Caco-2 monolayers grown on snapwells (passage 33; 23 days old) was measured to confirm monolayer integrity before beginning the experiment. […] After 24 hours, TER readings were taken, and samples from the basolateral and apical reservoirs were removed. […]

fixed Caco-2 cells = test: Effect of thrombin cleavage on binding of GST-peptide fusions to fixed Caco-2 cells; details: Caco-2
Description: Binding of intact and thrombin-cleaved GST-peptide fusions to fixed Caco-2 cells was compared.
Thirty micrograms of each GST-peptide was treated with bovine thrombin (1μ/ml; 0.4 NIH units; Sigma CN.T9681) for 18 h at room temperature in 20 mM Tris-HCl pH8.0, 150 mM NaCl, 2.5 mM CaCl2. Controls were similarly treated without addition of thrombin. Ten micrograms of each GST-peptide fusion was removed for PAGE analysis, and 10 μg of fusions were added in duplicate to the fixed Caco-2 cells before 5-fold serial dilutions (1% BPT diluent). The fusions were allowed to bind for 1 h at room temperature. Following 6 washes with 1% BPT, binding was assayed by ELISA.

[3] = system: P100 fractions harvested from Caco-2 cells; test: Binding of dansylated peptides to P100 fractions and peptide/particle correlation; details: two consecutive assays; versus scrambled PAX2 control
Description: Binding of peptide and/or peptide-coated PLGA particles to membrane (P100) and cytosolic (S100) fractions was assessed by detection of the dansyl moiety incorporated in the peptide. Costar ninety six well ELISA plates were coated with S100 and P100 fractions (100 μg/ml in 0.05 M NaHCO3) overnight at 4° C. The plates were blocked with 0.5% bovine serum albumin in DPBS for 1 h at room temperature and washed 3 times in 1% BSA-DPBS. Peptide-coated particles or peptides were dispersed in the same buffer and added to the plates at concentrations in the range 0.0325-0.5 mg/well. […] The plates were incubated for 1 h at room temperature. The wells were washed 3 times in 1% BSA-DPBS and 100 μl of goat anti-mouse IgGλ:HRP antibody (Southern Biotechnology 1060-05; 1:10,000) was added per well. The plates were incubated for 1 h at room temperature. After washing 3 times in 1% BSA-DPBS 100 μl of TMB substrate (3,3′,5′,5-tetramethylbenzidine; Microwell Peroxidase Substrate System (Kirkegaard and Perry Laboratories 50-76-00)) was added and the optical density was measured at 650 nm at various time intervals.
Binding of dansylated peptides to P100 fractions was assessed to determine if peptide binding was predictive of peptide-coated particle binding.

[4] = Peptide stability in simulated intestinal fluid (SIF); format: in vitro ADME; details: rank of relative stability to SIF, 1 = most stable
Description: The relative stability for ZElan031, ZElan053 and ZElan054 was determined in simulated intestinal fluid (SIF) SIF was made by dissolving 100 mg of pancreatin (Sigma cat# P-5 1625, lot# 122H0812) in 8.4 ml of phosphate stock solution, adjusting the pH to 7.5 with 0.2N NaOH and adjusting the volume to 10 ml with water.
Peptide (3.25 mg) was dissolved in 3.25 ml of 10,000 fold diluted SIF solution at 37° C. Aliquots (0.7 ml) of the digestion solution were then withdrawn at <1 min, 1 h, 3 h, and 21 h or 24 h. The samples were quickly passed through a syringe filter (Millipore Millex-GV 0.22 μm, part# SLGV025LS, lot# H2BM95250) and 300 μL of the filtered solution was immediately injected onto a Hewlett-Packard HPLC system equipped with a C-8 column (Applied Biosystems column and guard column: column-p/n 0711-0023 Spheri-5 ODS 5 μm, 220×4.6 mm). The products were eluted at 1.5 ml/min using an acetonitrile-water gradient. The major fluorescent peaks were collected, lyopholized and identified by MS analysis.

[5] = Crossreactive binding of GST fusions to dansylated peptides; details: 0.5 μg/ml GST fusion

Row | Molecule | binding to fixed Caco-2 or C2BBe1 cells relative to GST control [1] | transport (flux) across live Caco-2 monolayers, apical to basolateral [2] | effect of thrombin cleavage on detection of binding to fixed Caco-2 cells (fixed Caco-2 cells) | binding of dansylated peptide to P100 fractions [3] | Rel. Stab. [4] | crossreactive binding to ZElan024 (P31) and ZElan018 (PAX2) [5]
1 | gst-RYKHDIGCDAGVDKKSSSVRGGCGAHSSPPRAGRGPRGTMVSRL [GST-DCX8] | bound | higher flux than GST alone | significantly reduced |  |  | 
2 | C[C@@H](O)[C@H](NC(=O)[C@@H](N)CCCCNS(=O)(=O)c1cccc2c(N(C)C)cccc12)C(=O)N[C@H](CCCNC(=N)N)C(=O)N[C@@H](CCCCN)C(=O)N[C@@H](CO)C(=O)N[C@@H](CO)C(=O)N[C@H](CCCNC(=N)N)C(=O)N[C@@H](CO)C(=O)N[C@@H](CC(N)=O)C(=O)N1CCC[C@H]1C(=O)N[C@H](CCCNC(=N)N)C(=O)NCC(=O)N[C@H](CCCNC(=N)N)C(=O)N[C@H](CCCNC(=N)N)C(=O)N[C@@H](Cc1c[nH]cn1)C(=O)N1CCC[C@H]1C(=O)NCC(N)=O [ZElan053, H2N-K(dns)TrKSSrSNPrGrrHPG-CONH2] (H-K(Dansyl)T[dR]KSS[dR]SNP[dR]G[dR][dR]HPG-NH2) |  |  |  | binding at the highest dilution only | 1 | 
3 | gst-SARDSCPAEDGSRAVRLNGVENANTRKSSRSNPRGRRHP [GST-P31] | bound | higher flux than GST alone |  |  |  | no crossreactive binding
4 | C[C@@H](O)[C@H](NC(=O)[C@@H](N)CCCCNS(=O)(=O)c1cccc2c(N(C)C)cccc12)C(=O)N[C@@H](CCCNC(=N)N)C(=O)N[C@@H](CCCCN)C(=O)N[C@@H](CO)C(=O)N[C@@H](CO)C(=O)N[C@@H](CCCNC(=N)N)C(=O)N[C@@H](CO)C(=O)N[C@@H](CC(N)=O)C(=O)N1CCC[C@H]1C(=O)N[C@@H](CCCNC(=N)N)C(=O)NCC(=O)N[C@@H](CCCNC(=N)N)C(=O)N[C@@H](CCCNC(=N)N)C(=O)N[C@@H](Cc1c[nH]cn1)C(=O)N1CCC[C@H]1C(=O)NCC(N)=O [ZElan031] (H-K(Dansyl)TRKSSRSNPRGRRHPG-NH2) |  |  |  |  | 3 | 
